Some results are limits rather than exact numbers.

For test [1], the system named is P. aeruginosa 50808021 (MBL negative). Put plainly: Microbroth dilution, meropenem MIC with/without compound. It counts as cell-based. The note with it: compound at 125 μM; 50808021 P. aeruginosa MBL negative. The method, then:
(§1) General Protocol for Microbroth Dilution Method for Evaluating Antibacterial Activity of Compounds or Synergistic Effect of Compound-Antibiotic Combination
(§2) • Plate bacterial strain(s) on appropriate media: • Gram-negative bacteria with ESBLs or carbapenemases: green agar plates with 100 mg/L ampicillin • Gram-negative bacteria without β-lactamases: green agar plates • Gram-positive bacteria (Staphylococci and Enterococci): blood agar plates • Incubate o.n. at 37° C. Day 2: Prepare the Bacterial Inoculum: • Prepare a 0.5 McFarland suspension of bacteria in 0.85% NaCl. (Should be used within 15 min of preparation). • Dilute the 0.5 McFarland suspension 1:100 into MH broth. Check the inoculum by diluting the prepared bacterial suspension 1:100 (10 μl bacterial suspension+990 μl 0.85% NaCl). Plate 10 μl of the dilution on MH agar plates (×2). Incubate o.n. at 37° C., count the colonies and calculate the final CFU/ml inoculum in the plate by multiplying the average number of colonies with 10000 and divide by 2. The final inoculum should be between 3-7×10^5 CFU/ml. • Add 50 μl of the prepared bacterial suspension to each well in the microtiter plate except negative growth control. Preparation of Compounds/Antibiotics • Calculate the desired concentration-range and volume of the compounds/antibiotics in the assay. […] Dilute the stock solution in MH broth. Make subsequent 2-fold dilutions in MH broth of the desired concentrations if a concentration range is to be tested (remember the extra dilution factor in the assay plate). Always include extra volume for pipetting. Take into consideration stock solutions that are made in buffers that have an effect on bacterial growth (e.g. DMSO). Assay: • Determining the MIC of compounds/antibiotics alone: • Add 25 μl of each concentration of compound/antibiotic to row 2-11 (highest concentration in row 2) • Add 25 μl MH broth to row 2-11 • Add 50 μl MH broth to row 12 (positive control) • Add 100 μl MH broth to row 1 • Add 50 μl bacterial suspension to row 2-12. • Determining the MIC of antibiotics+compounds: • Add 25 μl of each concentration of antibiotic to row 2-11 (highest concentration in row 2) • Add 25 μl of compound to row 2-11 • Add 50 μl MH broth to row 12 (positive control) • Add 100 μl MH broth to row 1 • Add 50 μl bacterial suspension to row 2-12. • Incubate the plate for 20 hrs at 37° C. and determine the MIC in the presence and absence of inhibitor.

The subject of test [2] is K. pneumoniae 50732159 (MBL negative). The description is as above. The test is classed as cell-based. The note with it: 50732159 K. pneumoniae MBL negative. As to the method: as §1, §2
The subject of test [3] is E. coli 50739467 (MBL negative). The description is as above. The test is classed as cell-based. The note with it: 50739467 E. coli MBL negative. The method, then: as §1, §2
For test [4], the system named is MBL-producing P. aeruginosa, K. pneumoniae and E. coli. In words: Synergy with meropenem in MBL-producing clinical strains. It counts as cell-based. The note with it: compound 125 μM. The method, then:
as §1
(§3) • Plate bacterial strain(s) on appropriate media: • Gram-negative bacteria with ESBLs or carbapenemases: green agar plates with 100 mg/L ampicillin • Gram-negative bacteria without β-lactamases: green agar plates • Gram-positive bacteria (Staphylococci and Enterococci): blood agar plates • Incubate o.n. at 37° C. Day 2: Prepare the Bacterial Inoculum: • Prepare a 0.5 McFarland suspension of bacteria in 0.85% NaCl. (Should be used within 15 min of preparation). • Dilute the 0.5 McFarland suspension 1:100 into MH broth. Check the inoculum by diluting the prepared bacterial suspension 1:100 (10 μl bacterial suspension+990 μl 0.85% NaCl). Plate 10 μl of the dilution on MH agar plates (×2). Incubate o.n. at 37° C., count the colonies and calculate the final CFU/ml inoculum in the plate by multiplying the average number of colonies with 10000 and divide by 2. The final inoculum should be between 3-7×10^5 CFU/ml. • Add 50 μl of the prepared bacterial suspension to each well in the microtiter plate except negative growth control. Preparation of Compounds/Antibiotics • Calculate the desired concentration-range and volume of the compounds/antibiotics in the assay. […] Dilute the stock solution in MH broth. […]

For another test, the target named is VIM-2 (Escherichia coli, UniProt Q5U7L7). In words: IC50 determination against purified MBL, nitrocefin reporter substrate. The note with it: purified enzyme 1 nM, nitrocefin 50 μM, 25° C. The test is classed as biochemical. The method, then:
(§4) General Protocol for Determination of IC50-Values
(§5) Buffers: A: 50 mM HEPES pH 7.2, 100 μM ZnCl2
(§6) • B: 50 mM HEPES pH 7.2, 100 μM ZnCl2 and 400 μg/ml Bovine Serum Albumin (BSA) Equipment: SpectraMax 96 well reader • 96 well plates • Cuvettes • General plastics: dilution tubes, eppendorfs etc. Method: Inhibitors: a. Dissolved in 100% DMSO at a concentration of 10 mM • b. Dissolve the inhibitor in buffer A to a concentration of 25% DMSO. No more than 2.5% DMSO is tolerable in the assay. 100% DMSO (10 mM); […]; […] • c. Make a 2-fold dilution series of the inhibitor. At least 8 dilutions should be made. See example in table 1 Reporter Substrate (Nitrocefin): • a. Dilute a small amount of nitrocefin in 1 ml of DMSO • b. Add 990 μl buffer A+10 μl of nitrocefin to a cuvette. • c. Measure initial OD at absorbance specific for the substrate • d. Add purified enzyme to the cuvette and let the hydrolysis run to completion (the more concentrated the enzyme the faster the hydrolysis will run) • e. Measure the end OD • f. Calculate the concentration of substrate: [(End OD−Initial OD)×dilution factor]/Δε (Δε Nitrocefin=17400) • g. Dilute nitrocefin to 100 μM in buffer A Enzyme: Dilute purified enzyme in buffer B to a concentration of 10 nM. Assay: a. Set the settings and temperature on the Spectramax/software: • I. Kinetics • II. λ: 482 • III. Time: 20 min • IV. Interval: 2-5 sec. • V. Mix before 1st read: 5 sec. • VI. Temp: 25° C. • b. Add 30 μl buffer A, 10 μl purified enzyme (final concn. 1 nM), and 10 μl inhibitor to assay wells (duplicates for each inhibitor concentration). Also include a negative control. Wells with no added inhibitor, just 40 μl buffer A. See illustration in table 1. • c. Incubate the plate in the reader for 5 min. • d. Add 50 μl nitrocefin (final concn. 50 μM) to assay wells. This should be done quickly—preferably with an electronic multi-channel pipette. • e. Start the readings immediately. Determine: the initial velocity (V0) for each inhibitor concentration and calculate IC50.

In another test the target is GIM-1 (Pseudomonas aeruginosa, UniProt Q704V1). The test is described as above. As to conditions: purified enzyme 1 nM, nitrocefin 50 μM, 25° C. The test is classed as biochemical. The method, then:
as §4, §5, §6

Test [5] concerns the target GIM-1 in E. coli SNO3 containing pET26b-blaGIM-1 (Pseudomonas aeruginosa, UniProt Q704V1). Put plainly: MBL inhibition in whole E. coli cells expressing MBL (nitrocefin hydrolysis). The test is classed as cell-based. As to conditions: whole cell, test substance 250 μM.
The target in test [6] is VIM-2 in E. coli SNO3 containing pET26b-blaVIM-2 (Escherichia coli, UniProt Q5U7L7). The test is described as above. It counts as cell-based. The note with it: whole cell, test substance 250 μM.
The next test addresses NDM-1 (Klebsiella pneumoniae, UniProt C7C422). Put plainly: IC50 determination against purified MBL, nitrocefin reporter substrate. The test is classed as biochemical. As to conditions: purified enzyme 1 nM, nitrocefin 50 μM, 25° C. The method, then:
as §4, §5, §6

The subject of a further test is E. coli 50639799 (VIM-1). In words: Microbroth dilution, meropenem MIC with/without compound. The test is classed as cell-based. As to conditions: absence of inhibitor; 50639799 E. coli VIM-1. The method, then:
as §1, §2

The test system of test [7] is K. pneumoniae A3-81 (VIM-1). The test is described as above. It counts as cell-based. The note with it: absence of inhibitor; A3-81 K. pneumoniae VIM-1. The method, then:
as §1, §2

The test system of test [8] is K. pneumoniae K66-45 (NDM-1). Described as above. The test is classed as cell-based. As to conditions: absence of inhibitor; K66-45 K. pneumoniae NDM-1. The method, then:
as §1, §2

A further test deals with E. coli K71-77 (NDM-1). The description is as above. The test is classed as cell-based. The note with it: absence of inhibitor; K71-77 E. coli NDM-1. As to the method: as §1, §2
Test [9] has as its system MBL-negative clinical strains. Put plainly: Synergy with meropenem in MBL-negative clinical strains. The test is classed as cell-based. As to the method:
as §1, §3

NDM-1, sequence (C7C422 whole entry, looked up, species assumed): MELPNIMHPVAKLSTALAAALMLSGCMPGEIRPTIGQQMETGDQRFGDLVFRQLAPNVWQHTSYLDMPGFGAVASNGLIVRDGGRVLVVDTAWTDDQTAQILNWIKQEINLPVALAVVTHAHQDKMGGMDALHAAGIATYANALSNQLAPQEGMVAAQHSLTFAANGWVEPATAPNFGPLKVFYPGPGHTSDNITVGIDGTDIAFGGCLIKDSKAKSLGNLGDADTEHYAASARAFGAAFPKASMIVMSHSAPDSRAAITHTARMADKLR
GIM-1 in E. coli SNO3 containing pET26b-blaGIM-1, sequence (Q704V1 19-250 limits assumed): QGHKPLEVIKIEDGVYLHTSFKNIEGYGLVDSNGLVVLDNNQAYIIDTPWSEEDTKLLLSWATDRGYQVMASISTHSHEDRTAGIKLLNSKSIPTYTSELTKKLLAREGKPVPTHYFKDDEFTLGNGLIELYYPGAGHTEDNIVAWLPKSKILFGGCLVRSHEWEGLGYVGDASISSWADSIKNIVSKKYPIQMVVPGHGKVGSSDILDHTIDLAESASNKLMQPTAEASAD
GIM-1, sequence (Q704V1 19-250 limits assumed): as above

Consider `c1ccc(CN(CCN(Cc2ccccn2)Cc2ccccn2)Cc2ccccn2)nc1` [TPEN, N,N,N′,N′-tetrakis(2-pyridylmethyl) ethylenediamine, reference compound], for which the “Meropenem MIC (mg/L) in presence of compound” value in [1] is 64 mg/L; in [2] (compound at 125 μM), no more than 0.064 mg/L; in test [3] (compound at 125 μM) it was 1 mg/L. Further, the “synergistic activity with meropenem” value in [4] is “Synergistic activity”. The half-inhibitory concentration (IC50) was 0.3 µM against VIM-2 and 0.61 µM on GIM-1.
In the case of `COc1cc(Cn2cc(CN(Cc3ccccn3)Cc3ccccn3)nn2)cc(OC)c1OC` [Example 7, 1-(pyridin-2-yl)-N-(pyridin-2-ylmethyl)-N-((1-(3,4,5-trimethoxybenzyl)-1H-1,2,3-triazol-4-yl)methyl)methanamine], the inhibition at 250 µM in test [5] is 12.5%; in [6], 75.3%. Further, the IC50 came out at 18.7 µM against VIM-2 and 0.14 µM against GIM-1.
Take `COc1ccc(Cn2cc(CN(Cc3ccccn3)Cc3ccccn3)nn2)cc1[N+](=O)[O-]` [Example 8, 1-(1-(4-methoxy-3-nitrobenzyl)-1H-1,2,3-triazol-4-yl)-N,N-bis(pyridin-2-ylmethyl)methanamine]: the inhibition at 250 µM turned out to be 22.2% in test [5] and 83% in [6]. In addition, the IC50 on NDM-1 is 1.06 µM; against VIM-2, 14.8 µM; against GIM-1 it was 1.03 µM.
Turning to `O=[N+]([O-])c1ccc(Cn2cc(CN(Cc3ccccn3)Cc3ccccn3)nn2)cc1` [Example 6, 1-(1-(4-nitrobenzyl)-1H-1,2,3-triazol-4-yl)-N,N-bis(pyridin-2-ylmethyl)methanamine], the inhibition at 250 µM in [5] is 20.6%; in [6], 82.1%. For the same molecule, the IC50 at VIM-2 turned out to be 40.9 µM; on GIM-1, 0.71 µM.
Take `COc1ccc(-n2cc(CN(Cc3ccccn3)Cc3ccccn3)nn2)cc1` [Example 13, 1-(1-(4-methoxyphenyl)-1H-1,2,3-triazol-4-yl)-N,N-bis(pyridin-2-ylmethyl)methanamine]: the inhibition at 250 µM in test [5] was determined as 20.6%; in test [6], 82%. Besides, the figures for the IC50 at NDM-1, against VIM-2 and against GIM-1 were 0.72 µM, 24.9 µM and 1.43 µM, respectively.
For the molecule `COc1ccc(-n2cc(CN(Cc3ccccn3)Cc3ccccn3)nn2)c(OC)c1` [Example 11, 1-(1-(2,4-dimethoxyphenyl)-1H-1,2,3-triazol-4-yl)-N,N-bis(pyridin-2-ylmethyl)methanamine], the inhibition at 250 µM came to 16.5% in test [5] and 75.1% in test [6]. Moreover, the IC50 came to 12.2 µM against VIM-2 and 0.86 µM against GIM-1.
As for `COc1ccc(Cn2cc(CN(Cc3ccccn3)Cc3ccccn3)nn2)cc1` [Example 3, 1-(1-(4-methoxybenzyl)-1H-1,2,3-triazol-4-yl)-N,N-bis(pyridin-2-ylmethyl)methanamine], the inhibition at 250 µM in test [5] was determined as 15.7%; in test [6], 74%. Moreover, on VIM-2, half-maximal inhibition (IC50) was put at 19.8 µM.
For `C[C@@H](O)[C@H]1C(=O)N2C(C(=O)O)=C(S[C@@H]3CN[C@H](C(=O)N(C)C)C3)[C@H](C)[C@H]12` [MEM, Meropenem], the “Meropenem MIC” value with E. coli 50639799 (VIM-1) was 8 to 16 µg/mL; in test [7], 64 to 256 µg/mL; in test [2] (absence of inhibitor), 32 µg/mL; in test [3] (absence of inhibitor), 0.5 µg/mL; in test [8], 32 to 64 µg/mL; in the test with E. coli K71-77 (NDM-1) it was 1 to 4 µg/mL.
`COc1cc(-n2cc(CN(Cc3ccccn3)Cc3ccccn3)nn2)cc(OC)c1OC` [Example 5, 1-(pyridin-2-yl)-N-(pyridin-2-ylmethyl)-N-((1-(3,4,5-trimethoxyphenyl)-1H-1,2,3-triazol-4-yl)methyl)methanamine]: the inhibition at 250 µM in test [5] worked out at 14.4%; in [6], 73.8%. Also, the concentration for half-maximal inhibition (IC50) against VIM-2 was 11.5 µM; against GIM-1, 0.79 µM.
Regarding `FC(F)(F)c1ccc(-n2cc(CN(Cc3ccccn3)Cc3ccccn3)nn2)cc1` [Example 12, 1-(pyridin-2-yl)-N-(pyridin-2-ylmethyl)-N-((1-(4-(trifluoromethyl)phenyl)-1H-1,2,3-triazol-4-yl)methyl)methanamine], the “synergistic effect with meropenem” value in [9] is listed as “No synergistic effect”. Also, the inhibition at 250 µM in test [5] was 15.7%; in test [6], 64.2%. Moreover, the IC50 against VIM-2 amounted to 12.9 µM; on GIM-1, 1.1 µM.
Take `COc1ccc(Cn2cc(CN(Cc3ccccn3)Cc3ccccn3)nn2)cc1Br` [Example 9]: the figures for the inhibition at 250 µM in test [5] and in test [6] were 14.8% and 84.2%, respectively. Also, the figures for the IC50 at NDM-1, against VIM-2 and against GIM-1 were 0.6 µM, 19 µM and 3.15 µM, respectively.

For orientation: IC50 means the concentration that inhibits the measured activity by half. The low end stands for higher potency, the high end for lower potency. What is called inhibition is the drop in the measured response relative to a control, in per cent. High values mean strong suppression, low ones little suppression.

The record behind these values is patent US10227327B2, “Inhibitors of metallo-beta-lactamase (MBL) comprising a zinc chelating moiety” (Universitetet I Oslo, priority 2013, dated 2019).
